Literature values, collected in patent publication US7989600B2, “Macrolide compounds containing biotin and photo-affinity group for macrolide target identification” (GlaxoSmithKline Istrazivacki Centar Zagreb D.O.O., priority 2005, dated 2011).

System: α1-acid glycoprotein from serum
Settings: dialysis in combination HPLC methods; Castearena et al., J Chemother. 1995

## CC[C@H]1OC(=O)[C@H](C)[C@@H](O[C@H]2C[C@@](C)(OC)[C@@H](O)[C@H](C)O2)[C@H](C)[C@@H](O[C@@H]2O[C@H](C)C[C@H](N(C)C)[C@H]2O)[C@](C)(O)C[C@@H](C)CN(C)[C@H](C)[C@@H](O)[C@]1(C)O [azithromycin]
  binding to α1-acid glycoprotein from serum: specifically binds
